# Measurements as given in patent US11740249B2, “Recognition of cellular target binding by a bioactive agent using intracellular bioluminescence resonance energy transfer” (Promega Corporation, priority 2012, dated 2023).
# What was measured:
# [1] = target: T1, NANOLUC-HDAC6 fusion protein (Homo sapiens, UniProt Q9UBN7); assay: Intracellular BRET tracer binding, NANOLUC-HDAC6 in HEK293 cells (Example 1); conditions: live HEK293 cells, compared to SAHA-TMR (PBI-4967)
# T1 construct: expressed in transfected cells; host or cells: HEK293
# Protocol: In this example, conjugates of suberoylanilide hydroxamic acid (SAHA), an inhibitor of histone deacetylase 6 (HDAC6), and a PBI dye (SAHA-TOM (PBI-4968); See FIGS. 8A-B) or standard dye (SAHA-TAMRA (PBI-4967); See FIGS. 8A-B) were utilized in an intracellular BRET assay using a NANOLUC-HDAC fusion protein (SEQ ID NO: 3).
# HEK293 cells were transfected using FuGene HD (Promega Corp.) with plasmid DNA encoding a NANOLUC-HDAC6 fusion protein. NANOLUC-HDAC6 DNA was diluted 1:1000 with a promoterless carrier DNA (pGEM3Z) to yield a final concentration of 50 ng/well total DNA in 96-well plate format (at a seeding density of 20,000 cells/well). Twenty-four hours post-transfection, cells were then incubated with serially-diluted tracer in the presence or absence of a molar excess of unlabeled SAHA (as a specificity control). Following equilibration with the drug tracers, furimazine (a coelenterazine derivative substrate for NANOLUC; Promega Corp.) was added at a concentration of 20 uM, and BRET was quantified on a Varioskan luminometer. The specific BRET signal was calculated by subtracting the non-specific signal (in the presence of unlabeled SAHA) from the signal generated from the SAHA tracer alone.
# NANOLUC-HDAC6 = target: T2, NANOLUC-HDAC6 (Homo sapiens, UniProt Q9UBN7); assay: BRET compound panel screen by competitive displacement of SAHA-TOM, NANOLUC-HDAC6 in HEK293 cells (Example 15); format: binding; conditions: 1 uM SAHA-TOM (PBI-4968), 2 h
# T2 construct: expressed in transfected cells; host or cells: HEK293
# T2 sequence (Q9UBN7 with tags, fused parts or gaps): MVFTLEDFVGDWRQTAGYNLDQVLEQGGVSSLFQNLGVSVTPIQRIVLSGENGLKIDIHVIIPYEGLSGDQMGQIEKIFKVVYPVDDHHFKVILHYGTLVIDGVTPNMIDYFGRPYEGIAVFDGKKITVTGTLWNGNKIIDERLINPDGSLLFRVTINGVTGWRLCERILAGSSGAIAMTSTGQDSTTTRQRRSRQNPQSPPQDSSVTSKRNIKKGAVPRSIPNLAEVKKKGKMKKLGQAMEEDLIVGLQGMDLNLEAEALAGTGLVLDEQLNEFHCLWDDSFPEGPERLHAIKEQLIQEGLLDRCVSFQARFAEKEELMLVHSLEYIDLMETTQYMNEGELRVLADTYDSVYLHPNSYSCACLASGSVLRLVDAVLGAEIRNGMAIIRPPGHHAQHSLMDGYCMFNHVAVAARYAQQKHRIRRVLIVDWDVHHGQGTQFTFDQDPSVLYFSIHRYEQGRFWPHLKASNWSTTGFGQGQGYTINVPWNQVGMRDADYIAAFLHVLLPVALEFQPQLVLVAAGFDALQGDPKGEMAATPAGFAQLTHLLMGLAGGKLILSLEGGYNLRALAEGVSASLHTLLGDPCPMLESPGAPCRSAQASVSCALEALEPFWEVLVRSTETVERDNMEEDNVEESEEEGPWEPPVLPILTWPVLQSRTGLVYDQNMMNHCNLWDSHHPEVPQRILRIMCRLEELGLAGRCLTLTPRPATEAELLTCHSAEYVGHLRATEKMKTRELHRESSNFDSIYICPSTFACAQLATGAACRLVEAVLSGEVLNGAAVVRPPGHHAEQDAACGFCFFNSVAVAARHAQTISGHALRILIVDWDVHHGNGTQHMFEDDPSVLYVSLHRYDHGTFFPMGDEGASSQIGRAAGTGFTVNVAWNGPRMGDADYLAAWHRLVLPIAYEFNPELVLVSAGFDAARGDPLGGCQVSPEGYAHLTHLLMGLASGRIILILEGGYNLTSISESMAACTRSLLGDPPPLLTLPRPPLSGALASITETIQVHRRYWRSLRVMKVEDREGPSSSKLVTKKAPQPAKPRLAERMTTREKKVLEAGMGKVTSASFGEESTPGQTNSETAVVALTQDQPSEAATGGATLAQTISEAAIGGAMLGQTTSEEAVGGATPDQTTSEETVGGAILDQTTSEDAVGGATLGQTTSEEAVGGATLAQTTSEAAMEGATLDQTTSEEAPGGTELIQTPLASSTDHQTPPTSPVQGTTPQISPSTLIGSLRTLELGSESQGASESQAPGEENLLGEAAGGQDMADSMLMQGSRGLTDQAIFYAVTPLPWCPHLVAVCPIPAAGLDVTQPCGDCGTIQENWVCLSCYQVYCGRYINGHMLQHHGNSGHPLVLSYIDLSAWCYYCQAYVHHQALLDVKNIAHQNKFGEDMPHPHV
# T1 sequence (Q9UBN7 with tags, fused parts or gaps): as above
Compound,specific BRET signal ([1]; NANOLUC-HDAC6 DNA diluted 1:1000),EC50 value for binding within living cells [1],binding efficiency to HDAC6 (competitive displacement of tracer) (NANOLUC-HDAC6)
O=C(CCCCCCC(=O)Nc1ccc(CNC(=O)c2ccc(C(=O)O)c(C3=c4cc5c6c(c4Oc4c3cc3c7c4CCCN7CCCC3)CCC[N+]=6CCCC5)c2)cc1)NO [PBI-4968],"superior, specific BRET signal",left-shifted,
"O=C(CCCCCCC(=O)Nc1ccccc1)NO [SAHA, suberoylanilide hydroxamic acid]",,,high binding efficiency
